In PMC9531406 (Clinical cancer research : an official journal of the …, 2020):

What was measured:
SSTR2 expression [1] = test: SSTR2 expression in AR42J cells after VAC; format: cell-based, rat; conditions: AR42J cell line; 2 mM or 4 mM for 72 h
SSTR2 expression [2] = test: SSTR2 expression in thyroid cancer cells after epigenetic modifiers; format: cell-based, human
SSTR2 = test: IHC staining of SSTR2 in tumor tissues of treated mice; format: in vivo; conditions: FTC133 (p=0.023) and AR42J (p=0.016) models; VAC 300 µg/kg intraperitoneal daily for 10 days
examined cell lines = test: Growth inhibition / cell cycle after VAC treatment; format: cell-based; conditions: VAC treatment (Supplemental Figure 3)
[3] = test system: acetylated histone 3 and acetylated histone 4; test: Global histone acetylation; format: cell-based; conditions: FTC133, BCPAP, and AR42J cells; VAC 4mM, 72h, n=3
[4] = test system: subcutaneous and metastatic mice models; test: Effect of epigenetic pretreatment on uptake of SST analogs in mice models; format: in vivo; conditions: for effect on the uptake of ^86Y-DOTA-EB-TATE within the tumor and normal tissues in comparison with control mice: biodistribution, FTC133 and AR42J tumor-bearing mice
SSTR2 promoter [5] = test: ChIP assay, histone acetylation at the SSTR2 promoter, FTC133 cells; format: cell-based, human; conditions: VAC 4mM, 72h
AR42J tumors = test: PRRT in AR42J; format: in vivo; conditions: AR42J mice model; VAC 300 µg/kg intraperitoneal daily for 10 days
SSTR2 promoter [6] = test: ChIP assay, histone acetylation at the SSTR2 promoter, AR42J cells; format: cell-based, rat; conditions: VAC 4mM, 72h, n=4, relative to control
SSTR2 promoter [7] = test: ChIP assay, histone acetylation at the SSTR2 promoter, BCPAP cells; format: cell-based, human; conditions: VAC 4mM, 72h, n=4, relative to control, p<0.001
FTC133 tumors = test: PRRT in FTC133; format: in vivo; conditions: FTC133 mice model; VAC 300 µg/kg intraperitoneal daily for 10 days

Compound | SSTR2 expression (SSTR2 expression [1]) | SSTR2 expression (SSTR2 expression [2]; FTC133, BCPAP and TT cells, 2 mM or 4 mM for 72 h) | induction of SSTR2 expression in comparison to TAC and DEC (SSTR2 expression [2]; thyroid cancer cells, 72h) | SSTR2 expression in tumor tissues compared with placebo (IHC) (SSTR2) | effect on cell growth (examined cell lines) | global histone acetylation at the protein level [3] | effect on the uptake of ^86Y-DOTA-EB-TATE within the tumor and normal tissues in comparison with control mice [4] | effect of VAC treatment on the uptake of the SST analogs ([4]; subcutaneous and metastatic mice models, VAC 300 µg/kg intraperitoneal daily for 10 days, PET) | increase in H4 acetylation at the SSTR2 promoter (SSTR2 promoter [5]; n=4, p<0.001) [fold] | H3 acetylation at the SSTR2 promoter (SSTR2 promoter [5]; n=4, p<0.05) | effect of VAC pretreatment on the efficacy of ^177Lu-DOTA-EB-TATE (AR42J tumors) | increase in H3ac at the SSTR2 promoter (SSTR2 promoter [6]; p<0.001) [fold] | increase in H4ac at the SSTR2 promoter (SSTR2 promoter [6]; p<0.01) [fold] | increase in H3ac at the SSTR2 promoter (SSTR2 promoter [7]) [fold] | increase in H4ac at the SSTR2 promoter (SSTR2 promoter [7]) [fold] | effect of VAC pretreatment on the efficacy of ^177Lu-DOTA-EB-TATE (FTC133 tumors) | effect of decitabine treatment on the uptake of ^86Y-DOTA-EB-TATE ([4]; FTC133 and AR42J subcutaneous mice models, decitabine 1 mg/kg intraperitoneal daily for 10 days, PET scans)
CCCC(CCC)C(=O)O [VAC, valproic acid] | significantly upregulated | significantly upregulated | more potent inducer of SSTR2 expression | higher cytoplasmic SSTR2 expression | growth inhibition by promoting cell cycle arrest | increase in H3ac and H4ac | Neither VAC nor DEC treatment resulted in any significant difference | no significant effect | 2.4 | slightly, but significantly reduced | did not improve the efficacy | 2.8 | 2.7 | 1.9 | 2.9 | did not improve the efficacy | –
Nc1ncn([C@H]2C[C@H](O)[C@@H](CO)O2)c(=O)n1 [decitabine] | – | – | – | – | – | – | Neither VAC nor DEC treatment resulted in any significant difference | – | – | – | – | – | – | – | – | – | did not improve the uptake
